ChEMBL document CHEMBL1122188, “A quantitative structure-activity relationship study of the inhibitory action of a series of enkephalin-like peptides in the guinea pig ileum and mouse vas deferens bioassays” (J Med Chem, 1982)
Non-standard residues stand in square brackets, D forms with d. Residues, ends and D or L forms follow the SMILES beside them. Cha = N[C@@H](CC1CCCCC1)C(=O)O

Experiments:
Conditions in all cases: read-out: Log 1/IC50 (converted)
Mus musculus = species on record: Mus musculus; test: (§1) Inhibitory activity contractions of electrically stimulated mouse vas deferens was determined; type: functional, organism-based
Cavia porcellus = species on record: Cavia porcellus; test: Inhibitory activity for contractions of electrically stimulated guinea pig ileum was determined; type: functional, organism-based
[1] = target: Delta-type opioid receptor (Mus musculus, UniProt P32300); test: as §1; type: functional, tissue-based
Chain of Delta-type opioid receptor (P32300 whole entry): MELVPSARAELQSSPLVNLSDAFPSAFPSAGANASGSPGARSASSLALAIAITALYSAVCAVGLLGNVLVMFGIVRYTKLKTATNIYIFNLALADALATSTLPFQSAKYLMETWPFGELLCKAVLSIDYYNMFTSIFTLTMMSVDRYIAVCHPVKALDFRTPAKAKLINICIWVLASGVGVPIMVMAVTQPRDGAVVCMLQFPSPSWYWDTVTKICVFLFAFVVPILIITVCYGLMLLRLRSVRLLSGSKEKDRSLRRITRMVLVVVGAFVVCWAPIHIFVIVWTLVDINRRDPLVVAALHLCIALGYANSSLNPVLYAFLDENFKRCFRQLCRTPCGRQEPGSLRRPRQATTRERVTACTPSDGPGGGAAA

CC(C)C[C@H](NC(=O)[C@H](Cc1ccccc1)NC(=O)CNC(=O)[C@H](C)NC(=O)[C@@H](N)Cc1ccc(O)cc1)C(N)=O
IC50 (Mus musculus): 9.55 nM
IC50 (Cavia porcellus): 11.2 nM

CSCC[C@H](NC(=O)[C@H](Cc1ccccc1)NC(=O)CNC(=O)[C@H](C)NC(=O)[C@@H](N)Cc1ccc(O)cc1)C(N)=O
IC50 (Cavia porcellus): 11.5 nM

C[C@H](NC(=O)[C@@H](N)Cc1ccc(O)cc1)C(=O)NCC(=O)N[C@@H](Cc1ccc([N+](=O)[O-])cc1)C(=O)N[C@@H](CCC(C)(C)C)C(N)=O
IC50 (Cavia porcellus): 1.91 nM

COc1ccc(C[C@H](N)C(=O)N[C@@H](C)C(=O)NCC(=O)N[C@@H](Cc2ccc([N+](=O)[O-])cc2)C(=O)N[C@@H](CCSC)C(N)=O)cc1
IC50 (Cavia porcellus): 2.29 nM
IC50 [1]: 3.16 nM

C[C@H](NC(=O)[C@@H](N)Cc1ccc(O)cc1)C(=O)NCC(=O)N[C@@H](Cc1ccc([N+](=O)[O-])cc1)C(=O)N[C@@H](CC12CC3CC(CC(C3)C1)C2)C(N)=O
IC50 (Cavia porcellus): 3.8 nM
IC50 [1]: 20.4 nM

CC(C)C[C@H](NC(=O)[C@H](Cc1ccc([N+](=O)[O-])cc1)NC(=O)CNC(=O)[C@H](C)NC(=O)[C@@H](N)Cc1ccc(O)cc1)C(N)=O
IC50 (Cavia porcellus): 3.16 nM

COc1ccc(C[C@H](N)C(=O)N[C@@H](C)C(=O)NCC(=O)N[C@@H](CC2CCCCC2)C(=O)N[C@@H](CCSC)C(N)=O)cc1 (H-Y(Me)AG[Cha]M-NH2)
IC50 (Cavia porcellus): 72.4 nM

C[C@H](NC(=O)[C@@H](N)Cc1ccc(O)cc1)C(=O)NCC(=O)N[C@@H](Cc1ccccc1)C(=O)N[C@H](C(N)=O)C(C)(C)C (HELM PEPTIDE1{Y.A.G.F.[CC(C)(C)[C@H](N[*:1])C(=O)[*:2]].[am]}$$$$V2.0)
IC50 (Cavia porcellus): 11.7 nM
IC50 [1]: 9.77 nM

C[C@H](NC(=O)[C@@H](N)Cc1ccc(O)cc1)C(=O)NCC(=O)N[C@@H](Cc1ccccc1)C(=O)N[C@@H](CC12CC3CC(CC(C3)C1)C2)C(N)=O (HELM PEPTIDE1{Y.A.G.F.[O=C([C@H](CC12CC3CC(CC(C3)C1)C2)N[*:1])[*:2]].[am]}$$$$V2.0)
IC50 (Cavia porcellus): 6.03 nM
IC50 [1]: 50.1 nM

CC(C)C[C@H](NC(=O)[C@H](CC1CCCCC1)NC(=O)CNC(=O)[C@H](C)NC(=O)[C@@H](N)Cc1ccc(O)cc1)C(N)=O (HELM PEPTIDE1{Y.A.G.[Cha].L.[am]}$$$$V2.0)
IC50 (Cavia porcellus): 91.2 nM

CC(C)C[C@H](NC(=O)[C@H](CC12CC3CC(CC(C3)C1)C2)NC(=O)CNC(=O)[C@H](C)NC(=O)[C@@H](N)Cc1ccc(O)cc1)C(N)=O (HELM PEPTIDE1{Y.A.G.[O=C([C@H](CC12CC3CC(CC(C3)C1)C2)N[*:1])[*:2]].L.[am]}$$$$V2.0)
IC50 (Cavia porcellus): 1000 nM
IC50 [1]: 2950 nM
